# Measured values published in patent US11478466B2, “Small molecule promoting osteoblast differentiation” (Cornell University, priority 2019, dated 2022).
# What was measured:
# AP-1 response element = AP-1 response element luciferase reporter assay; assay type: cell-based; details: 293T HEK cells, 7 hours, various concentrations
# Method: For AP-1 reporter assays, 293T HEK cells were seeded at 0.25×10^6 cells/well of a gelatin-coated 24-well plate one day before transfection. Plasmid transfections were performed using Lipofectamine LTX (Invitrogen) according to manufacturer's protocol. Briefly, 293T HEK cells were co-transfected with pGL4.44 AP1 [luc2P/AP1 RE/Hygro] reporter plasmid (Promega) and SV40Renilla plasmid as a transfection control. 24 hours after transfection, cells were incubated in serum free DMEM media for 24 hours. The following day, cells were treated with 10 ng/ml PMA (Phorbol 12-myristate 13-acetate; Tocris) or indicated concentration of DIPQUO in serum free DMEM for 7 hours prior to lysis with 1× Passive Lysis buffer (Promega). Luciferase expression was measured using Dual-Glo Luciferase Assay (Promega).
# p38 MAPK = experiment: Western blotting of p38 MAPK phosphorylation in C2C12 cells; assay type: cell-based, mouse
# Method: Whole cell extracts were collected from C2C12 or BRITER cells in complete lysis buffer (20 mM Tris, 150 mM NaCl, 50 mM NaF, 1% NP40 substitute, HALT protease inhibitor cocktail (ThermoScientific). Proteins were resolved by electrophoresis on pre-cast 10% NuPage Bis-Tris gels (Invitrogen) and transferred to PVDF membranes (Bio-Rad). Membranes were blocked in 5% BSA-TBS-0.5% Tween-20 for 15 minutes, then incubated at 4° overnight with primary antibodies. Antibodies used were: rabbit anti-phospho-p38 MAPK (cat. no. 9211), anti-p38 MAPK XP (8690), anti-phospho-SMAD1/5 (9516), anti-SMAD1 XP (6944), anti-phospho-SMAD2/3 (8828), anti-SMAD2/3 XP (8685), anti-phospho-JNK (4668), anti-SAPK/JNK (9252), anti-phospho-Akt XP (4060), pan anti-Akt (4691), anti-phospho ERK p42/p44 (4377), anti-ERK p42/p44 (9102), anti-phospho-MKK3/6 (12280), anti-MKK3 (8535), anti-phospho-TAK1 (4531), anti-TAK1 (5206), anti-HA (3274), and anti-FLAG (14793); all from Cell Signaling); and mouse anti-p38α (cat. no. 33-1300), anti-p38β (33-8700; both ThermoFisher) and anti-β-actin (Sigma A1978). Proteins were visualized with HRP-conjugated secondary antibodies (Bio-Rad) with WestPico (ThermoFisher) or Immobilon (Millipore) chemiluminescence reagents. Images were obtained and analyzed for relative densitometric relationships on a LI-COR C-DiGit scanner using Image Studio software.
# adult zebrafish = experiment: Adult zebrafish caudal fin regeneration model; assay type: in vivo, Danio rerio; details: 15 μM in tank water, 26 h regeneration at 32° C., vs DMSO
# Excerpt: We next tested the regenerative capabilities of zebrafish, which have a robust capacity to replace and renew organs and tissues derived from all three germ layers. Regenerating fin joints are reported to constitute a pre-osteoblast niche from which OSX-expressing (Sp7+) osteoblasts radiate de novo (Ando et al., 2017). Simultaneously, osteoblasts and osteogenic hypertrophic chondrocytes in both early and later stages of differentiation express collagen10 (col10a1) (Huycke et al., 2012).
# Animals studies were performed according to protocols approved by the WCMC IACUC. Wildtype (AB/TU hybrid) zebrafish were maintained at 28.5° C. Larval fish were treated from 7 dpf to 8 dpf in tank water with DMSO or with a 24-hour pulse of 15 μM DIPQUO or inert analog BT344 or BT345, and were fixed at 9 dpf in 4% paraformaldehyde overnight rocking at 4° C. Fixed larvae were washed in PBS-0.1% Tween-20 (PBST), followed by 50% ethanol/50% PBST. Larvae were transferred to staining solution (66.5% ethanol, 100 mM MgCl2, 0.02% alizarin red) and incubated for 40 hours, rocking at room temperature in the dark. Larvae were washed in H2O+0.1% Tween-20, and excess stain removed by bleaching for approximately 10 minutes in the dark with a 1:1 mixture of 3% […] and 2% KOH. […] Images were acquired on a Zeiss LSM 800 confocal microscope and Sp7^+/col10a1^+ cells quantified using ImageJ.
smiles,measurement,setting,value
"Cc1cc(C)c2[nH]c(=O)c(-c3[nH]cnc3-c3ccccc3)cc2c1 [RU-0226606, 6,8-dimethyl-3-(4-phenyl-1H-imidazol-5-yl)quinolin-2(1H)-one]",AP-1 response element luciferase reporter activation,AP-1 response element,Neither did DIPQUO stimulate activation
same,p38 MAPK signaling (phosphorylation),"p38 MAPK; C2C12, western blotting",selectively activated p38 MAPK signaling
same,concentration at which effects on p38 MAPK and JNK pathway activation overlap,"p38 MAPK; dose-response, western blotting, 6-8 hours of treatment",5 to 10 µM
same,number of Sp7+/Col10a1+ cells emanating from new fin ray joints,adult zebrafish,significantly increased
